{
  "source": "patent US20250127165A1",
  "about": "“USE OF 2-AMINO-3-PHENYLBUTYRIC ACID OR 2,6-DIAMINO-3-METHYLHEXANOIC ACID AS PLANT IMMUNE RESISTANCE INDUCER” (NANJING TIANNONG BIOTECHNOLOGY CO., LTD., priority 2021, published 2025)",
  "key": {"[1]": {"test_system": "wheat powdery mildew", "test": "Induced resistance of wheat seedlings to powdery mildew infection (pot test)", "assay_type": "in vivo, wheat (NAU0686)", "conditions": "for disease index / relative immunization effect: concentration higher than 1,000 nM", "procedure": "2-amino-3-phenylbutyric acid was dissolved in distilled water and then gradiently diluted with distilled water into solutions of 10 nM, 100 nM, 1,000 nM, and 10,000 nM, and a blank control was set up. After germination, wheat (NAU0686) seeds were planted in sterilized soil culture pot, and cultured in a greenhouse at 23° C. (+1° C.) and 12-h light/dark conditions. When the seedlings grew to the 1-leaf-1-heart stage, a solution of 2-amino-3-phenylbutyric acid at the above concentrations was sprayed onto the stems and leaves of wheat seedlings, and repeated the treatment at 24-hour intervals for a total of two treatments. After 24 hours, fresh wheat powdery mildew spores were uniformly sprinkled onto the wheat leaves, and each treatment comprised three pots of seedlings, with 20 plants per pot. After 10 days, the disease grade of wheat in each treatment group was investigated, and the morbidity degree was recorded according to the grading standard of wheat powdery in the “Pesticides-Guidelines for the Field Efficacy Trails” (I), and the disease index and the relative immunization effect were calculated in the same manner as those of tomato spotted wilt.\n(§1) Grading Standard of Wheat Powdery Mildew (per leaf): • Grade 1: The area of diseased spots accounts for 5% or less of the whole leaf area; • Grade 3: The area of diseased spots accounts for 6%-15% of the whole leaf; • Grade 5: The area of diseased spots accounts for 16%-25% of the whole leaf; • Grade 7: The area of diseased spots accounts for 26%-50% of the whole leaf; • Grade 9: The area of diseased spots accounts for 50% or more of the whole leaf area."}, "[2]": {"test_system": "wheat powdery mildew", "test": "Field trial of induced resistance of wheat to powdery mildew", "assay_type": "in vivo", "conditions": "1,000 nM, field spray", "procedure": "A solution of 2-amino-3-phenylbutyric acid at a concentration of 1,000 nM (with 0.02% by volume of surfactant Tween 20) was sprayed onto the stems and leaves in the field. The treatment included spraying 0.02% by volume of surfactant Tween 20 as an auxiliary control, and Atailing (30 g/mu) as a positive control, with two replications per treatment. After the spray, the disease grade of wheat in each treatment group was investigated, and the morbidity degree was recorded according to the grading standard of wheat powdery in the “Pesticides-Guidelines for the Field Efficacy Trails” (I), and the disease index and the relative immunization effect were calculated in the same manner as those of tomato spotted wilt. After the harvested wheat seeds were dried, the thousand grain weight of wheat seeds from different treatments was measured.\nas §1"}, "[3]": {"test_system": "wheat", "test": "Induced resistance of wheat to drought stress (25% PEG-6000)", "assay_type": "in vivo", "conditions": "for drought injury index (%) / dry weight (g) aboveground part / dry weight (g) underground part / fresh weight (g) aboveground part / fresh weight (g) underground part / length of root (cm): 6 days drought stress, 7 days recovery", "procedure": "Wheat was hydroponic cultured in a 6-mesh sieve used as a container at 50 grains per sieve, and ½ Hoagland nutrient solution was changed every three days. When the wheat grew to the stage of two leaves and one bud, 2-amino-3-phenylbutyric acid solution was sprayed on the leaf surface, and the concentration of 2-amino-3-phenylbutyric acid was 0, 100 and 1,000 nM, and 0.02% Tween 20 was added as surfactant. After two days of continuous spraying, the hydroponic nutrient solution was replaced with ½ Hoagland nutrient solution containing 25% PEG-6000 on the 3rd day for stress treatment. After 6 days of drought stress, rehydration treatment was conducted. And after 7 days of recovery growth in normal nutrient solution, the drought injury index was observed and determined, and the root length and biomass were determined.\nThe performance characteristics of drought injury of leaves are similar to those of salt injury. The rate of drought injury and the drought injury index are introduced by using the evaluation indexes of salt injury. The formula for calculating the drought injury index is as follows, and the grading standard of drought injury is shown in Table 15."}, "[4]": {"test_system": "Leuconostoc dextranicum", "conditions": "Edelson & Keeley, 1963; cited from earlier work"}, "[5]": {"test_system": "arthritis in rats", "conditions": "100 mg/kg and 200 mg/kg; Ren et al., 2019; cited from earlier work"}, "[6]": {"test_system": "ryegrass", "test": "Induced resistance of ryegrass to high temperature stress", "assay_type": "in vivo", "conditions": "for heat injury index (%): 45° C. 12 h, 7 days recovery", "procedure": "2,6-diamino-3-methylhexanoic acid was dissolved in distilled water and then gradiently diluted with distilled water into solutions of 1 nM, 10 nM, 100 nM, and 1,000 nM, and a blank control was set up, while 0.02% Tween 20 was added as surfactant. Four groups of replicates were set up for each concentration, and set up a blank control at room temperature. Ryegrass seeds were weighed and planted in a pot with a diameter of 8.5 cm at 0.8 g per pot, and transferred to a greenhouse with a temperature of 25° C., a humidity of 60%-70%, and a light intensity of 200 μmol m^−2s^−1 (12 h light/12 h darkness). After 7 days of growth, ryegrass was treated by spraying 2,6-diamino-3-methylhexanoic acid solution on the leaf surface, and spraying twice within 24 hours. 24 hours after the second spray, the plants were transferred to a light incubator at 45° C. for high temperature stress treatment. After 12 hours of treatment, they were removed and transferred to a greenhouse at 25° C. for 7 days for recovery. The injured conditions of the plants were observed and the grade of hot injury was calculated, where the grading standard of heat injury is shown in Table 8, and the formula for calculating the heat injury index is as follows."}, "[7]": {"test_system": "lysine monooxygenase", "conditions": "Ohnishi et al., 1976; cited from earlier work"}},
  "data": [
    {"smiles": "CC(c1ccccc1)C(N)C(=O)O", "note": "(stereo not shown) [2-amino-3-phenylbutyric acid]", "values": [
      {"measurement": "relative immunization effect (%)", "setting": "[1]; 10 nM", "result": 19.88, "unit": "%"},
      {"measurement": "relative immunization effect (%)", "setting": "[1]; 100 nM", "result": 30.77, "unit": "%"},
      {"measurement": "relative immunization effect (%)", "setting": "[1]; 1,000 nM", "result": 55.38, "unit": "%"},
      {"measurement": "relative immunization effect (%)", "setting": "[1]; 10,000 nM", "result": 66.92, "unit": "%"},
      {"measurement": "disease index", "setting": "[1]", "result": "lower than 50"},
      {"measurement": "relative immunization effect", "setting": "[1]", "result": "more than 50%"},
      {"measurement": "relative immunization effect (%)", "setting": "[2]", "result": 51.72, "unit": "%"},
      {"measurement": "thousand grain weight", "setting": "[2]", "result": 38.87, "unit": "g"},
      {"measurement": "thousand grain weight (g)", "setting": "[2]", "result": "38.87 ± 0.20", "unit": "a g"},
      {"measurement": "drought injury index (%)", "setting": "[3]; 100 nM", "result": 46, "unit": "%"},
      {"measurement": "dry weight (g) aboveground part", "setting": "[3]; 100 nM", "result": "0.87 ± 0.01", "unit": "b g"},
      {"measurement": "dry weight (g) underground part", "setting": "[3]; 100 nM", "result": "0.38 ± 0.01", "unit": "b g"},
      {"measurement": "fresh weight (g) aboveground part", "setting": "[3]; 100 nM", "result": "7.51 ± 0.24", "unit": "b g"},
      {"measurement": "fresh weight (g) underground part", "setting": "[3]; 100 nM", "result": "3.77 ± 0.23", "unit": "b g"},
      {"measurement": "length of root (cm)", "setting": "[3]; 100 nM", "result": "14.23 ± 0.12", "unit": "a cm"},
      {"measurement": "decrease of drought injury index", "setting": "[3]; 1,000 nM", "result": 46, "unit": "%"},
      {"measurement": "increase of fresh weight of aboveground part compared with the control group", "setting": "[3]; 1,000 nM", "result": 46.33, "unit": "%"},
      {"measurement": "increase of fresh weight of underground part compared with the control group", "setting": "[3]; 1,000 nM", "result": 55.14, "unit": "%"},
      {"measurement": "increase of root length compared with the control group", "setting": "[3]; 1,000 nM", "result": 11.87, "unit": "%"},
      {"measurement": "drought injury index (%)", "setting": "[3]; 1,000 nM", "result": 27, "unit": "%"},
      {"measurement": "dry weight (g) aboveground part", "setting": "[3]; 1,000 nM", "result": "0.94 ± 0.05", "unit": "a g"},
      {"measurement": "dry weight (g) underground part", "setting": "[3]; 1,000 nM", "result": "0.43 ± 0.02", "unit": "a g"},
      {"measurement": "fresh weight (g) aboveground part", "setting": "[3]; 1,000 nM", "result": "8.97 ± 0.32", "unit": "a g"},
      {"measurement": "fresh weight (g) underground part", "setting": "[3]; 1,000 nM", "result": "4.53 ± 0.01", "unit": "a g"},
      {"measurement": "length of root (cm)", "setting": "[3]; 1,000 nM", "result": "14.70 ± 0.37", "unit": "a cm"},
      {"measurement": "effect on growth of Leuconostoc dextranicum", "setting": "[4]", "result": "inhibited the growth"},
      {"measurement": "effect on arthritis in rats", "setting": "[5]", "result": "can alleviate arthritis"}
    ]},
    {"smiles": "CC(CCCN)C(N)C(=O)O", "note": "(stereo not shown) [2,6-diamino-3-methylhexanoic acid]", "values": [
      {"measurement": "relative immunization effect (%)", "setting": "[1]; 10 nM", "result": 28.13, "unit": "%"},
      {"measurement": "relative immunization effect (%)", "setting": "[1]; 100 nM", "result": 48.99, "unit": "%"},
      {"measurement": "relative immunization effect (%)", "setting": "[1]; 1,000 nM", "result": 65.26, "unit": "%"},
      {"measurement": "relative immunization effect (%)", "setting": "[1]; 10,000 nM", "result": 73.45, "unit": "%"},
      {"measurement": "disease index", "setting": "[1]", "result": "lower than 50"},
      {"measurement": "relative immunization effect", "setting": "[1]", "result": "more than 50%"},
      {"measurement": "heat injury index (%)", "setting": "[6]; 1 nM", "result": 60, "unit": "%"},
      {"measurement": "heat injury index (%)", "setting": "[6]; 10 nM", "result": 54, "unit": "%"},
      {"measurement": "heat injury index (%)", "setting": "[6]; 100 nM", "result": 40, "unit": "%"},
      {"measurement": "decrease of heat injury index", "setting": "[6]; 1,000 nM", "result": 69, "unit": "%"},
      {"measurement": "heat injury index (%)", "setting": "[6]; 1,000 nM", "result": 22, "unit": "%"},
      {"measurement": "drought injury index (%)", "setting": "[3]; 100 nM", "result": 40, "unit": "%"},
      {"measurement": "dry weight (g) aboveground part", "setting": "[3]; 100 nM", "result": "0.94 ± 0.01", "unit": "b g"},
      {"measurement": "dry weight (g) underground part", "setting": "[3]; 100 nM", "result": "0.42 ± 0.01", "unit": "b g"},
      {"measurement": "fresh weight (g) aboveground part", "setting": "[3]; 100 nM", "result": "7.70 ± 0.02", "unit": "b g"},
      {"measurement": "fresh weight (g) underground part", "setting": "[3]; 100 nM", "result": "3.79 ± 0.01", "unit": "b g"},
      {"measurement": "length of root (cm)", "setting": "[3]; 100 nM", "result": "14.35 ± 0.08", "unit": "b cm"},
      {"measurement": "decrease of drought injury index", "setting": "[3]; 1,000 nM", "result": 59, "unit": "%"},
      {"measurement": "increase of fresh weight of aboveground part compared with the control group", "setting": "[3]; 1,000 nM", "result": 31.03, "unit": "%"},
      {"measurement": "increase of fresh weight of underground part compared with the control group", "setting": "[3]; 1,000 nM", "result": 34.42, "unit": "%"},
      {"measurement": "increase of root length compared with the control group", "setting": "[3]; 1,000 nM", "result": 9.77, "unit": "%"},
      {"measurement": "drought injury index (%)", "setting": "[3]; 1,000 nM", "result": 21, "unit": "%"},
      {"measurement": "dry weight (g) aboveground part", "setting": "[3]; 1,000 nM", "result": "1.05 ± 0.01", "unit": "a g"},
      {"measurement": "dry weight (g) underground part", "setting": "[3]; 1,000 nM", "result": "0.49 ± 0.01", "unit": "a g"},
      {"measurement": "fresh weight (g) aboveground part", "setting": "[3]; 1,000 nM", "result": "8.99 ± 0.01", "unit": "a g"},
      {"measurement": "fresh weight (g) underground part", "setting": "[3]; 1,000 nM", "result": "4.59 ± 0.03", "unit": "a g"},
      {"measurement": "length of root (cm)", "setting": "[3]; 1,000 nM", "result": "14.63 ± 0.12", "unit": "a cm"},
      {"measurement": "substrate activity for lysine monooxygenase", "setting": "[7]", "result": "no substrate activity"}
    ]}
  ]
}
